Assay results: paper PMC12860872, “Preclinical evaluation of DOTAGA.Glu.(FAPI)2 and DO3A.Glu.(FAPI)2 as theranostics with human dosimetry extrapolation to lutetium-177 and terbium-161 analogs” (European Journal of Nuclear Medicine and Molecular Imaging, 2025)

Legend:
DPP8 = system: DPP8; set-up: method as in Martin et al. 2023 (15); details: ref Martin et al. 2023 (15); cited from earlier work
PREP = system: PREP; set-up: method as in Martin et al. 2023 (15); details: ref Martin et al. 2023 (15); cited from earlier work
DPP9 = system: DPP9; set-up: method as in Martin et al. 2023 (15); details: ref Martin et al. 2023 (15); cited from earlier work
DPP4 = system: DPP4; set-up: method as in Martin et al. 2023 (15); details: ref Martin et al. 2023 (15); cited from earlier work
FAP = system: FAP; set-up: method as in Martin et al. 2023 (15); details: enzymatic assay; ref Martin et al. 2023 (15); cited from earlier work
PC3-mice = experiment: Biodistribution in PC3-mice incl. blocking; assay type: in vivo, mouse; details: PC3-model
Procedure: Male athymic Balb/C nude mice (6 weeks/20–25 g) were implanted with PC3 cells (3.5 × 10^6/100 µL PBS) into their right shoulder to develop tumors. The animals were used for biodistribution and PET/SPECT/CT imaging studies, once tumors reached 250–300 mm^3.
All mice were euthanized with intraperitoneal injection of pentobarbital (150 mg/kg), and selected organs were dissected, weighed, and measured for radioactivity using a gamma-counter. Results are expressed as % injected activity per gram tissue (% I.A./g), presented as mean ± SD (n = 3–4).

tumor uptake (PC3-mice; labeled with gallium-68) | tumor uptake (PC3-mice; labeled with lutetium-177) | Structure (SMILES) | IC50 (DPP8) [nM] | IC50 (PREP) [nM] | IC50 (DPP9) [nM] | IC50 (DPP4) [nM] | IC50 (FAP) [nM]
– | – | N#C[C@@H]1CC(F)(F)CN1C(=O)CNC(=O)c1ccnc2ccc(OCCCCNC(=O)CC[C@H](NC(=O)CCC(C(=O)O)N3CCN(CC(=O)[O-])CCN(CC(=O)[O-])CCN(CC(=O)[O-])CC3)C(=O)NCCCCOc3ccc4nccc(C(=O)NCC(=O)N5CC(F)(F)C[C@H]5C#N)c4c3)cc12.[Lu+3] (stereo partly shown) [[^natLu]Lu-DOTAGA.Glu.(FAPi)2] | 220 ± 20 | 430 ± 160 | 190 ± 10 | 650 ± 40 | 0.33 ± 0.02
~ 20% | ~ 16% | N#C[C@@H]1CC(F)(F)CN1C(=O)CNC(=O)c1ccnc2ccc(OCCCCNC(=O)CC[C@H](NC(=O)CN3CCN(CC(=O)O)CCN(CC(=O)O)CCN(CC(=O)O)CC3)C(=O)NCCCCOc3ccc4nccc(C(=O)NCC(=O)N5CC(F)(F)C[C@H]5C#N)c4c3)cc12 [DO3A.Glu.(FAPI)2] | 1030 ± 180 | 1000 ± 140 | 950 ± 110 | 540 ± 60 | 0.6 ± 0.04
~ 20% | ~ 16% | N#C[C@@H]1CC(F)(F)CN1C(=O)CNC(=O)c1ccnc2ccc(OCCCCNC(=O)CC[C@H](NC(=O)CCC(C(=O)O)N3CCN(CC(=O)O)CCN(CC(=O)O)CCN(CC(=O)O)CC3)C(=O)NCCCCOc3ccc4nccc(C(=O)NCC(=O)N5CC(F)(F)C[C@H]5C#N)c4c3)cc12 (stereo partly shown) [DOTAGA.Glu.(FAPI)2] | 29 ± 4 | 590 ± 100 | 83 ± 1.5 | 1190 ± 80 | 0.26 ± 0.04
